According to US11529359B2, “Use of GABAA receptor modulators for treatment of itch” (UNIVERSITÄT ZÜRICH, priority 2016, dated 2022):

What was measured:
[1] = system: contact dermatitis-induced chronic itch; test: oxazolone contact dermatitis model of chronic itch in wild-type mice; type: in vivo, wild-type C57BL6/J mice
Method: Thus, TPA023B is, in accordance with the other findings of the inventors, suitable as an antipruritic substance.
This was independent of the treatment they received from day 7 to day 27.
The inventors sought to confirm the antipruritic efficacy of α2 and α3 GABAA receptor agonists against contact dermatitis-induced chronic itch. To this end, N-desmethyl clobazam, a benzodiazepine with improved activity at α2 versus α1 was assessed for its antipruritic effects (Jensen et al. PLoS One. 2014 Feb. 12; 9(2):e88456.).
Chronic itch was investigated in the contact dermatitis model (Kido-Nakahara, M., et al. J Clin Invest, 2014, 124, 2683-2695). Mice were treated once with 10% oxazolone in acetone/olive oil (4:1 v/v) on the shaved nape of the neck (100 μl) on day 0. After a resting period of 7 days, mice were treated with 1% oxazolone in acetone/olive oil (4:1 v/v) on the nape of the neck (100 μl) every other day for 10 days. On the day of the experiment, mice were injected with drug or vehicle i.p. under short and light isoflurane anesthesia. […]

[2] = system: GABA-IPSCs in GRP neurons; test: GABAergic IPSCs in GRP neurons, whole-cell recordings in spinal cord slices; type: cell-based, GRP::eGFP mice; conditions: 1 μM; n=7
Method: Transverse spinal cord slices ([…]) were prepared from 20 to 29-day old GRP::eGFP mice of either sex as described previously (Dugue, G. P., et al. Neuron, 2009, 61, 126-139). Whole-cell patch clamp recordings were made at room temperature targeting eGFP positive neurons. During recordings, slices were continuously superfused at the rate of 1-2 ml/min with aSCF containing (in mM): 120 NaCl, 2.5 KCl, 1.25 NaH2PO4, 26 […], 5 HEPES, 1 MgCl2, 2 CaCl2) and 14.6 glucose (pH 7.4), equilibrated with 95% O2, 5% CO2. Recorded neurons were voltage clamped at −70 mV using an EPC 9 amplifier (HEKA Elektronic, Lambrecht, Germany) controlled with Patchmaster acquisition software. […] IPSCs were evoked by electrical stimulation (300 μs, 0.2-50 V) at 0.05 Hz using glass electrode filled with aCSF and placed 50-100 μm from the soma of the recorded cell. […] At the end of the recordings bicuculline (10 μM) was added to confirm the GABAergic nature of the recorded IPCSs. The weighted decay time constant (τw) was calculated from dual-exponential fits using the following equation: Tw=(τ1A1+τ2A2)/(A1+A2) where τ1 and τ2 are the fast and the slow decay time constants and A1 and A2 are the equivalent amplitude weighting factors (Labrakakis, C., Lorenzo, L. E., Bories, C., Ribeiro-da-Silva, A. & De Koninck, Y Mol Pain, 2009, 5, 24). […]

## CC(C)(O)c1cnn2c(-c3ccc(F)c(-c4c(F)cccc4C#N)c3)cnc2n1 [TPA023B, 6,2′-difluoro-5′-[3-(1-hydroxy-1-methylethyl)imidazo[1,2-b][1,2,4]triazin-7-yl]biphenyl-2-carbonitrile]
[1]; 1 mg/kg i.p. for nine consecutive days, d/d vs v/d
  tolerance development to the antipruritic effects: exclude tolerance development
[1]; 1 mg/kg i.p. on day 18, 15 to 210 min after injection
  scratching bouts directed at the nape of the neck vs vehicle: significant reduction in scratching bouts
[1]; 1 mg/kg i.p. on day 28 after vehicle or 1 mg/kg once daily for nine consecutive days
  scratching bouts on day 28 vs vehicle, independent of pretreatment: significant reduction in scratching bouts
[2]
  amplitude of GABA-IPSCs: did not affect the amplitude
  prolongation of the decay of GABA-IPSCs: 43±10%
